Reference: patent US6342492B1, “Anti-viral triaza compounds and compositions” (The Research Foundation of State University of New York, priority 1995, dated 2002)
Where a name gives a salt, the structure may show the parent alone. Read-outs that look alike come from different tables or passages of the source.

What was measured:
[1] = system: HIV strain 2h, a primary pediatric clinical isolate; test: Protein (p24) assay in PBMC cells with 2h; assay type: cell-based; details: Protein (p24) assay in PBMC cells, read-out: ED50 2h/PBMC
HIV strain MD48 = test: MAGI assay on HeLa-MAGIC cells (plaque inhibition); assay type: cell-based; details: MAGI assay on HeLa-MAGIC cells (plaque inhibition), read-out: ED50 MD48/HeLa
HIV strain MB48 = test: Reverse transcriptase (RT) assay in MT-2 cells, HIV strain MB48; assay type: cell-based; details: Reverse transcriptase (RT) assay in MT-2 cells, read-out: ED50 MB48/MT-2
Varicella Zoster Virus = test: Plaque reduction assay for VZV (Ellen strain); assay type: cell-based
Experimental: (§1) Additional antiviral testing was carried out to test the efficacy of compounds of the invention against human cytomegalovirus (HCMV) and another herpesvirus, Variecella Zoster Virus(VZV). The compounds tested were compound (1), the HCl salt of compound (1), Compounds 211, 43, 213 and 214.

[2] = Inhibition of cell proliferation (cytotoxicity) in herpesvirus screening; assay type: cell-based, human; details: human, human foreskin fibroblast cells, inhibit cell proliferation by 50%
Human Cytomegalovirus [3] = test: Semi-automated CPE-inhibition assay for HCMV in human foreskin fibroblast cells; assay type: cell-based
Experimental: as §1

[4] = system: human foreskin fibroblast cells; test: Inhibition of cell proliferation (cytotoxicity) in herpesvirus screening; assay type: cell-based
Human Cytomegalovirus [5] = test: Plaque reduction assay for HCMV; assay type: cell-based; details: read-out: Human Cytomegalovirus EC50 (values in parentheses)
[6] = HCMV CPE-inhibition screen, read-out: Human Cytomegalovirus CC50
[7] = VZV screen, read-out: Varicella Zoster Virus CC50
[8] = Human immunodeficiency virus 1, 2 h
[9] = Human immunodeficiency virus 1, MT2

Q: What does the source list for C=CCN(CCCN(CCCN(CC=C)S(=O)(=O)c1ccc(C)cc1)Cc1ccccc1)S(=O)(=O)c1ccc(C)cc1 [Compound 004, N-Benzylbis[3-(N′-2-propenyltoluenesulfonamido)propyl]amine dihydrogen sulfate]?
A: EC50 [1]: 0.5 µM; EC50 (HIV strain MD48): 3.5 µM; EC50 (HIV strain MB48): 2.6 µM

Q: Which results are given for C=C1CN(S(=O)(=O)c2ccc(C)cc2)CCC[N+]([O-])(Cc2ccccc2)CCCN(S(=O)(=O)c2ccc(C)cc2)C1 [Compound 43, 9-Benzyl-3-methylene-1,5-ditosyl-1,5,9-triazacyclododecane-9-oxide]?
A: EC50 (Varicella Zoster Virus; Human alphaherpesvirus 3): 24.3 µM; CC50 [2, 6]: > 170 µM; CC50 [2, 7]: > 170 µM; EC50 [1, 8]: 0.5 µM; EC50 (HIV strain MD48; Human immunodeficiency virus 1): 3.5 µM; EC50 (Human Cytomegalovirus [3]; Human betaherpesvirus 5): > 170 µM; EC50 (HIV strain MB48; [9]): 1.8 µM

Q: For C=C1CN(S(=O)(=O)c2ccccc2)CCCN(Cc2ccccc2)CCCN(S(=O)(=O)c2ccccc2)C1 [Compound 211, 9-Benzyl-3-methylene-1,5-dibenzenesulfonyl-1,5,9-triazacyclododecane], which EC50 (Varicella Zoster Virus; Human alphaherpesvirus 3) is on record?
A: 91.7 µM

Q: What about the CC50 [2, 6] of the same molecule?
A: > 170 µM

Q: What about the CC50 [2, 7] of the same molecule?
A: > 170 µM

Q: And the EC50 [1, 8]?
A: 0.5 µM

Q: What about the EC50 (HIV strain MD48; Human immunodeficiency virus 1) of the same molecule?
A: 1.5 µM

Q: What about the EC50 (Human Cytomegalovirus [3]; Human betaherpesvirus 5) of the same molecule?
A: > 170 µM

Q: What about the EC50 (HIV strain MB48; [9]) of the same molecule?
A: 1.9 µM

Q: Which EC50 (Varicella Zoster Virus) does the source give for “N-Benzyl-N-[3-(N-2-methyl-2-propenyl-toluenesulfonamido)propyl]-N-(3-toluenesulfonamidopropyl)amine dihydrogen sulfate [Compound 214]” here?
A: 25.2 µM

Q: And the CC50 ([4]; inhibit cell proliferation by 50%, HCMV CPE-inhibition screen, read-out: Human Cytomegalovirus CC50)?
A: > 150 µM

Q: What about the CC50 ([4]; inhibit cell proliferation by 50%, VZV screen, read-out: Varicella Zoster Virus CC50) of the same molecule?
A: 68.5 µM

Q: And the CC50 ([4]; with HCMV plaque reduction assay, read-out: Human Cytomegalovirus CC50 (values in parentheses))?
A: 147 µM

Q: What about the EC50 (Human Cytomegalovirus [5]) of the same molecule?
A: 20.5 µM

Q: And the EC50 (Human Cytomegalovirus [3])?
A: 2.2 µM
